Measured values taken from patent US11666619B2, “Composition for treating atopic dermatitis including herbal medicine mixed extract” (University—Industry Cooperation Group of Kyung Hee …, priority 2016, dated 2023).

Key:
BALB/c mouse = test: DNCB-induced AD-like skin lesions in BALB/c mouse: clinical signs, skin thickness, spleen weight, body weight; type: in vivo; details: DNCB-treated BALB/c mice
From the text: To examine effects of KAJD on atopic dermatitis (AD), DNCB (2,4-dinitrochlorobenzene) was applied to the skin of a BALB/c mouse to induce AD-like symptoms. In many studies regarding atopic dermatitis, models in which atopy-like dermatitis was induced using chemical antigens such as DNCB, 2,4-dinitrofluorobenzene, 2,4,6-trinitrothlorobenzene, etc. are used ([…]. et al, Immunology, 1995, 86, 545-550). In detail, 6-week-old BALB/c mice (20±2 g) were used, which were purchased from Orient Inc. (Seongnam, Korea). Mice were randomly divided into control groups or experimental groups (no treatment, DNCB, DNCB+tacrolimus, DNCB+KAJD), each group including five mice. All mice were raised under a pathogen-free environment with free access to sterile distilled water and solid feed. All mouse experiments were approved by the Experimental Animal Ethics Committee of Kyung Hee University (Approval Number: KHUASP (SE)-14-014). To induce AD-like skin lesions, the dorsal skin of the mouse was shaved, and 100 μL of 2% DNCB was applied thereto using a patch of 1 cm×1 cm twice a week. KAJD or tacrolimus, which is an existing therapeutic agent for AD, was periodically applied to the DNCB-applied skin for 2 weeks. At 28 days, all mice were sacrificed by CO2 inhalation. To examine changes in the skin of the BALB/c mouse by KAJD, clinical signs were observed once a week for 4 weeks. Severities of AD-like lesions in the dorsal skin, which are indicated by erythema/bleeding, edema, exfoliation/dryness, and excoriation/erosion, were scored according to a scale of 0 to 3 (0: absent, 1: mild, 2: moderate, 3: severe). Individual scores were added, and clinical skin scores were defined according to a scale of 0 to 12.

white blood cells (WBCs) = test: Number of white blood cells in blood of DNCB-treated mice (hematology analyzer); type: in vivo, mouse; details: FIG. 5
Experimental: High levels of white blood cells (WBCs) are observed in most atopic dermatitis patients. Therefore, to examine therapeutic effects of KAJD on atopic dermatitis, the number of WBCs in the blood of mice was analyzed after treatment with KAJD. In detail, whole blood samples were collected from the heart of a mouse, and stored in a Vacutainer™ tube containing EDTA (BD Science, NJ, USA). The number of WBCs, lymphocytes, monocytes, eosinophils, basophils, or neutrophils was analyzed using a HEMAVET 950 hematology analyzer (Drew Scientific, Inc., Oxford, USA).

[1] = system: serum IgE and inflammatory cytokines; test: Serum IgE and inflammatory cytokines in DNCB-treated mice (sandwich ELISA); type: in vivo, mouse; details: FIG. 6
Experimental: One of the features of AD is high expression levels of blood IgE and inflammatory cytokines. Therefore, to analyze a mechanism of anti-inflammatory activity of KAJD, levels of blood IgE and inflammatory cytokines in DNCB-treated mice were analyzed. In detail, expression levels were analyzed by sandwich ELISA using a BD PharMingen mouse or human ELISA set (Pharmingen, San Diego, Calif., USA). A plate was coated with a capture antibody contained in an ELISA coating buffer (Sigma, St. Louis, Mo., USA), and stored at 4° C. for one day. The plate was washed with 0.05% PBS-Tween 20, and subsequently, blocked with 10% FBS-containing PBS at 20° C. for 1 hour. A standard antigen or sample serially diluted with a dilution buffer (10% FBS-containing PBS) was put in the plate, followed by incubation at 20° C. for 1 hour. Thereafter, biotin-conjugated anti-mouse IgE and SAv-HRP (streptavidin-horseradish peroxidase conjugate) was added to the plate, followed by incubation at 20° C. for 1 hour. Lastly, a TMB (tetramethylbenzidine) substrate solution was added to the plate, and incubated under dark conditions for 15 minutes, and then the reaction was terminated with a 2 N H2SO4 solution. Optical density was measured using an ELISA reader (Versa Max, Molecular Devices, CA, USA) at 450 nm.

Structure (SMILES): C=CC[C@@H]1/C=C(\C)C[C@H](C)C[C@H](OC)[C@H]2O[C@@](O)(C(=O)C(=O)N3CCCC[C@H]3C(=O)O[C@H](/C(C)=C/[C@@H]3CC[C@@H](O)[C@H](OC)C3)[C@H](C)[C@@H](O)CC1=O)[C@H](C)C[C@@H]2OC [tacrolimus]
- scleroderma (thickness of the dorsal skin) (BALB/c mouse; FIG. 2C): remarkably decrease
- spleen weight (BALB/c mouse; FIG. 2D): remarkably decrease
- severe symptoms of the skin (erythema/bleeding, edema, exfoliation/dryness, excoriation/erosion) (BALB/c mouse; topical application, FIG. 2A): remarkably reduce severe symptoms of the skin
- clinical score (severity score of AD-induced skin lesions) (BALB/c mouse; scale of 0 to 12, applied to DNCB-applied skin for 2 weeks, FIG. 2B): 3.29±0.76
- number of WBC subtypes including lymphocytes, monocytes, eosinophils, basophils, and neutrophils (white blood cells (WBCs)): decrease the number of WBC subtypes
- number of white blood cells (white blood cells (WBCs)): considerably decrease
- serum IgE [1]: considerably inhibit
- serum inflammatory cytokines (IL-6, IL-10, IL-12) [1]: considerably inhibit
